Tests used:
[1] = test system: normal human BioArtificial Muscles (mBAMs engineered from human skeletal myoblasts); experiment: Tetanic (active) force of mBAMs, MyoForce Analysis System; type: cell-based; details: 80 nM; after 3-4 days of drug treatment; p<0.001
Experimental: According to this example, a composition comprising histamine and serotonin was administered at 6 different concentrations on normal human BioArtificial Muscles (mBAMs engineered from human skeletal rmyoblasts) for effects on strength (active force generation) and injury using Myomics' MyoForce Analysis System (MFAS™).
A solution comprising 200 times the dosage of the histamine and serotonin present in a typical therapeutic drop (i.e., 1 mg histamine and 16 mg serotonin in PBS) stored at 4° C. was administered to a cell culture comprising human skeletal muscle cells previously isolated from a normal (disease-free) person were used for this study. Cells were expanded in culture in a Growth Medium optimized for human skeletal muscle (SKGM/15) for 5 days before engineering into bioartificial muscles (mBAMs). On the day of engineering, mBAMs, cells were trypsinized and counted following standard laboratory protocols.
A sterile 96 well MyoForce plate was used for tissue engineering the mBAMs. Myomics' Robotic Tissue Engineering Platform was used to engineer 72 mBAMs in approximately 10 minutes by mixing cells with an extracellular matrix solution and casting in the plate wells. The plate containing the mBAMs was maintained for 2 days at 37° C. in SKGM/15, then incubated in an optimized differentiation medium for the remainder of the experiment. […]

[2] = test system: C57BL/10SCSN-Dmd^mdx/J mice; experiment: Grip strength tests (triangle and mesh) in mdx mouse model of DMD; type: in vivo; details: 1×, 4×, 8×, twice daily
Excerpt: Female mouse strain C57BL/10SCSN-Dmd^mdx/J (Jackson laboratories) is a strain of mice that is most similar in affliction to humans with DMD. The mdx mutation of Dmd is recessive and heterozygous females are visually indistinguishable from wild-type mice. […] One of the drawbacks of this mouse model is that by six weeks (10 weeks of age) the afflicted mice mimic the wild type control mice. This is attributed to the compensatory function of the dystrophin-related protein utrophin, which is highly up regulated in regenerating muscle fibers in adult Dmd^mdx mutants. The histamine and serotonin formulation was evaluated using this mouse model to determine its effects on DMD.
The first experiment conducted focused on whether any difference could be detected in mice receiving the histamine and serotonin formulation vs. control.
Injections started the following day.
Measurements to determine effectiveness of histamine and serotonin formulation were conducted using two different methods: 1. a wire hang test was utilized to see how long the mice were able to hang onto a wire before releasing and falling, and 2. a grip strength meter device (Columbus Instruments) was used to measure the peak force exerted by the animal when pulled. […]
For both of the grip strength tests, ten measurements were taken per mouse and the average was recorded.

SMILES: CC(=O)OCC(=O)[C@@]12N=C(C)O[C@@H]1C[C@H]1[C@@H]3CCC4=CC(=O)C=C[C@]4(C)[C@H]3[C@@H](O)C[C@@]12C [deflazacort]
- increase in tetanic force compared to untreated controls [1]: 32%

SMILES: NCCc1c[nH]cn1 [histamine]
- triangle and mesh grip strength vs PBS control ([2]; third experiment, histamine alone 0.4×): improves performance in both the Triangle and Mesh tests

SMILES: NCCc1c[nH]c2ccc(O)cc12 [serotonin, 5-hydroxytryptamine]
- grip strength tests vs PBS controls ([2]; fourth experiment, serotonin alone 0.4×): no statistically significant differences

Reference: patent US20140121256A1, “METHOD OF TREATING MUSCULAR WEAKNESS COMPRISING ADMINISTERING A COMPOSITION COMPRISING AN EFFECTIVE AMOUNT OF HISTAMINE AND/OR SEROTONIN” (BEECH TREE LABS, INC., priority 2012, published 2014)
